Where a SMILES comes first, the peptide text is derived from it. [ ]: non-standard residue; d: D form. N(1S-Me-propyl)Gly = CC[C@H](C)NCC(=O)O; Nspe = C[C@H](NCC(=O)O)c1ccccc1; Nlys = NCCCCNCC(=O)O

Common to all, as to assay type: cell-based, human
One assay has as its system IL-8. In words: IL-8 in supernatant of THP-1 macrophages co-incubated with peptoid and LPS (ELISA). Particulars: 3 days, vs LPS alone. As to the method: THP-1 monocytes were differentiated into macrophages through exposure to phorbol 12-myristate 13-acetate (PMA) for three days prior to experimentation 10. […] Upon differentiation, these cells were then incubated (3 days) with media containing JPT1a (50, 10, or 2 μM) alone or JPT1a (50, 10, or 2 μM) in the presence of low-dose (2 ng/mL) lipopolysaccharide (LPS) as a chronic pro-inflammatory stimulus 11. Treatment with 2 ng/mL LPS alone served as a positive control, while treatment with an equivalent volume of buffer diluted into media served as the vehicle. Cellular supernatant was harvested on day 3 12; these samples were immediately centrifuged at 1200 rpm for 10 min at 25° C. to remove any cells or debris. […] All multi-channel images were converted to TIFF file format via ImageJ64 software for quantitative image analysis using a custom subroutine written in Matlab™ software to obtain the average RAGE expression per volume of cells, and the data generated was assessed for statistical significance using GraphPad Prism 7.0 software 15.
As shown in FIGS. 2B-2D, THP-1 macrophages were treated with JPT1a alone (white) or in the presence of a chronic low-dose (2 ng/mL) of LPS (grey), for 3 days prior to supernatant harvest and storage. Examination of the supernatant via ELISA determined the concentrations of (FIG. 2B) IL-1β, (FIG. 2C) IL-6, and (FIG. 2D) IL-8. […]

The subject of the next assay is IL-1β. In words: IL-1β expression in previously LPS-stimulated THP1 macrophages (ELISA). As to conditions: 25, 5, 1 μM added after 48 h of 2 ng/mL LPS, additional 24 h. As to the method:
(§1) THP-1 monocytes were differentiated as described above 20. Upon differentiation, these cells were then incubated (48 h) with media containing low-dose (2 ng/mL) LPS as a chronic pro-inflammatory stimulus 21. Following incubation, JPT1a or JPT1 was added for final concentrations of 25, 5, and 1 μM 22, and cells were incubated an additional 24 h. Treatment with 2 ng/mL LPS alone served as a positive control, while treatment with an equivalent volume of buffer diluted into media served as the vehicle. Media was collected for later assessment of cytokines via ELISA as described above 23. Cells were fixed and stained for RAGE, phalloidin (cytoplasmic marker), and DAPI (nuclear marker) 24. Each channel was imaged with a Zeiss LSM 510 META Confocal Scanning Laser Microscope using a plan-neofluar 40×/1.3 oil DIC immersion objective; three of these multi-channel images were obtained from each slide in each experiment. 25 All multi-channel images were converted to TIFF file format via ImageJ64 software for quantitative image analysis using a custom subroutine written in Matlab™ software to obtain the average RAGE expression per volume of cells, and the data generated was assessed for statistical significance using GraphPad Prism 7.0 software 26.
(§2) As shown in FIGS. 4B-4D, THP1 macrophages were treated with low-dose LPS at 2 ng/mL. […]

Another assay has as its system RAGE. In words: Aβ1-42 oligomer induced RAGE expression in THP1 macrophages (confocal imaging). As to conditions: 3 days. The procedure:
Aβ1-42 oligomers were prepared at 15 μM through the addition of 12 mM phosphate containing […] to DMSO-solubilized AP. After 15-minute incubation, oligomerization was halted and used to immediately prepare treatments of 10 nM Aβ1-42 oligomers alone (positive control) or in the presence of the peptoid at concentrations ranging from 1 μM to 25 μM. Treatments were applied to THP1 macrophages for 3 days prior to cell fixation and staining. Treatment with 10 nM Aβ1-42 oligomers alone served as a positive control, while treatment with an equivalent volume of buffer diluted into media served as the vehicle. Treatment with 15 μM JPT1a ensured that JPT1a alone had no effect. Cells were fixed and stained for RAGE, phalloidin (cytoplasmic marker), and DAPI (nuclear marker). […] All multi-channel images were converted to TIFF file format via ImageJ64 software for quantitative image analysis using a custom subroutine written in MATLAB™ software to obtain the average RAGE expression per volume of cells.
Treatment with an equivalent volume of buffer diluted into media served as the vehicle. Treatment with 25 μM JPT1a in the presence of vehicle assessed the effect of the peptoid alone (black). Images were analyzed via custom MATLAB™ subroutine to determine the average quantity of RAGE present within a given volume of cells. […]

In the next assay the test system is IL-6. Put plainly: IL-6 expression in previously LPS-stimulated THP1 macrophages (ELISA). As to conditions: 25, 5, 1 μM added after 48 h of 2 ng/mL LPS, additional 24 h. As to the method: as §1, §2
In general terms: In an ELISA, binding on a coated surface is turned into a signal by an enzyme label.

For the compound `CC[C@H](C)N(CC(=O)N(CC(=O)N(CC(=O)N(CC(=O)N(CC(=O)N(CC(=O)N(CC(N)=O)[C@@H](C)c1ccccc1)[C@@H](C)c1ccccc1)[C@@H](C)CC)[C@@H](C)c1ccccc1)[C@@H](C)c1ccccc1)[C@@H](C)CC)C(=O)CNCCCCN` [JPT1a] (H-[Nlys][N(1S-Me-propyl)Gly][N(1S-Me-propyl)Gly][Nspe][Nspe][N(1S-Me-propyl)Gly][Nspe][Nspe]-NH2), the “levels of LPS-induced IL-8” value in the assay with IL-8 (peptoid 10 μM with 2 ng/mL LPS) is recorded as “significantly reduces”. Moreover, the “LPS-induced production of IL-8” value with IL-8 (peptoid 50 μM with 2 ng/mL LPS) is “significantly attenuates”. Besides, the “IL-1β production of previously stimulated macrophages” value in the assay on IL-1β is given as “does not affect cytokine production”. Moreover, the “expression of RAGE, JPT1a alone” value in the assay on RAGE (25 μM JPT1a in the presence of vehicle) was “does not provoke significant response or upregulation”. Besides, the “Aβ1-42 oligomer induced RAGE expression” value in the assay with RAGE (JPT1a 25, 10, 5 or 1 μM with 10 nM Aβ1-42 oligomers, fraction of positive control) is recorded as “dose-dependent reduction”. In the assay on IL-6, the “IL-6 production of previously stimulated macrophages” value is listed as “does not affect cytokine production”.

The values above are taken from patent publication US11197908B2, “Peptoids and methods for attenuating inflammatory response” (THE BOARD OF TRUSTEES OF THE UNIVERSITY OF ARKANSAS, priority 2018, dated 2021).
